How the values were obtained:
[1] = test system: mouse spleen cells; test: IgG production upon ConA stimulation of mouse spleen cells (ELISA of culture supernatant); type: cell-based; details: for IgG concentration (amount of IgG production), mean: BALB/c mouse spleen cells, 5 days culture, supernatant; for Ability to promote IgG production upon ConA stimulation: mouse spleen cells, Student's t test, significance level 5%
Description: (§1) BALB mice (female) of 6 to 8 weeks old were purchased and fed for 1 week for habituation. A commercially available solid feed was used as a feed and tap water was used as water. In order to evaluate influences of cinacalcet and γ-glutamylvaline on antibody producing activity, a culture system using mouse spleen cells was employed. The spleen was collected from BALB-c mice (n=3). The collected spleen cells were washed and thereafter suspended in an RPMI1640 medium (10% FCS, 50 U/ml penicillin, and 50 μg/ml streptomycin). To cells adjusted to 1×10^6 per a 48 well culture plate, cinacalcet or γ-glutamylvaline (dissolved in a sterilized phosphate buffer), or a phosphate buffer as a control was added. And the cells were then stimulated with 5 μg of LPS (lipopolysaccharide, obtained from Sigma). Thereafter, the cells were cultured in a CO2 incubator at 37° C. for 5 days and the amount of IgA antibody in the supernatant was analyzed.
In the same manner, the cells adjusted to 1×10^6 per a 48 well culture plate were, in the presence or absence of cinacalcet or γ-glutamylvaline, stimulated with 0.5 μg of ConA (concanavalin A). Thereafter, the cells were cultured in a CO2 incubator at 37° C. for 5 days and the amount of IgG antibody in the supernatant was analyzed.
(§2) The amounts of IgA and IgG were measured by the ELISA method. The method for measuring IgG is shown below. 100 μl of rat anti-mouse IgG antibody (Calbiochem, 1 μg/ml in 50 mM sodium carbonate buffer, pH 8.5) solution was added to a 96 well ELISA plate and the plate was incubated at 4° C. overnight to coat each well with the anti-mouse IgG antibody. The plate was washed three times with PBST (phosphate buffered saline, 0.05% Tween 20) and subjected to a blocking treatment with 200 μl of PBS solution containing 2% BSA at 37° C. for 1 hr.
(§3) The plate was washed three times with PBST. Thereafter, 100 μl of the culture supernatant (9 fold diluted with PBST containing 1% BSA) was added and allowed to react at 37° C. for 2 hr. The plate was again washed four times with PBST. 100 μl of an alkaline phosphatase-conjugated anti-mouse IgG (rabbit) (BD Biosciences) solution diluted 2000 fold with PBST containing 1% BSA was added and allowed to react at 37° C. for 1 hour. The plate was washed six times and then colored with p-nitrophenyl phosphate. The reaction was terminated with 100 μl/well of 3 M NaOH and the absorbance at 405 nm was measured.
(§4) A statistical analysis was carried out by Student's t test and a significance level of 5% or less was considered as significant difference.

[2] = test system: mouse spleen cells; test: IgA production upon LPS stimulation of mouse spleen cells (ELISA of culture supernatant); type: cell-based; details: for IgA concentration (amount of IgA production), mean: BALB/c mouse spleen cells, 5 days culture, supernatant; for Ability to promote IgA production upon LPS stimulation: mouse spleen cells, Student's t test, significance level 5%
Description: as §1, §2, §3
The measurement of IgA was carried out in accordance with the method for IgG except that a rat anti-mouse IgA antibody (BD Biosciences) was used as the immobilized antibody, a biotinylated anti-mouse IgA antibody (rat) (BD Biosciences) was used as the labeled antibody, 3,3′,5,5′-tetramethylbenzidine solution (TMB substrate-developing solution, Sigma) was used as the chromogenic substrate, termination of the coloring was carried out using 1 M sulfuric acid, and the absorbance at 450 nm was measured.
as §4

Row | Compound | IgG concentration (amount of IgG production), mean ([1]; ConA stimulation + test substance 0.1 mM) [ng/mL] | Ability to promote IgG production upon ConA stimulation [1] | IgA concentration (amount of IgA production), mean ([2]; LPS stimulation + test substance 0.1 mM) [ng/mL] | Ability to promote IgA production upon LPS stimulation [2] | IgG concentration (amount of IgG production), mean ([1]; ConA stimulation + test substance 0.1 μM) [ng/mL] | IgA concentration (amount of IgA production), mean ([2]; LPS stimulation + test substance 0.1 μM) [ng/mL]
1 | CC(C)[C@H](NC(=O)CC[C@H](N)C(=O)O)C(=O)O [γ-GluVal, γ-glutamylvaline] | 62.78 | significantly confirmed | 25.28 | significantly confirmed | – | –
2 | C[C@@H](NCCCc1cccc(C(F)(F)F)c1)c1cccc2ccccc12 [Cinacalcet, (R)—N-(3-(3-(trifluoromethyl)phenyl)propyl)-1-(1-naphthyl)ethylamine] | – | significantly confirmed | – | significantly confirmed | 55.24 | 26.09

— patent US20110070270A1, “IMMUNOSTIMULATING AGENT” (priority 2008, published 2011)
